Reference: US10421765B2, “Tetrahydropyrido[4,3-d]pyrimidine inhibitors of ATR kinase” (Board of Regents, The University of Texas System, priority 2017, dated 2019)
Like-named read-outs stand apart in the source and are kept apart here.

Assays:
ATR/ATRIP complex = ATR/ATRIP complex (Homo sapiens (Human), UniProt Q13535); assay: ATR/ATRIP enzymatic assay (Caliper-based); format: biochemical; settings: FAM-labeled RAD17 peptide, ATP
Experimental: Human full-length FLAG-TEV-ATR and His6-ATRIP were co-expressed in HEK293 cells. The cell pellet (20 g) was harvested and lysed in 100 mL of lysis buffer (20 mM Tris-HCl pH 7.5 at room temperature, 137 mM NaCl, 10% glycerol, 1 mM DTT, 1% (v/v) Tween-20, 0.1% (v/v) NP-40, complete protease inhibitor cocktail tablets, phosphatase inhibitor cocktail tablets, 2 mM MgCl2, 0.2 mM EDTA, and 1 mM ATP). After sonication and centrifugation, the supernatant was incubated at 4° C. for 3 hours with 1 mL of anti-FLAG resin (Sigma catalog #A2220) that had been pre-equilibrated in buffer A (20 mM Tris-HCl pH 7.5 at room temperature, 137 mM NaCl, 10% glycerol, 1 mM DTT, 2 mM MgCl2, and 0.2 mM EDTA). The sample was loaded into a column, and then washed with buffer A three times. Protein was subsequently eluted with 2 ml of buffer B (buffer A+200 μg/ml 3×FLAG peptide).
The ability of new chemical matter to inhibit the ATR catalytic activity in this ATR/ATRIP complex was assessed using a Caliper-based assay. A 2x enzyme solution (i.e., 4 nM enzyme) was prepared using 1× Kinase Reaction Buffer (25 mM HEPES pH 8, 0.0055% Brij-35, 10 mM MnCl2, and 1 mM DTT). A 2x peptide solution was then prepared consisting of 10 uM FAM-labeled RAD17 peptide (GL Biochem, catalog #524315) in 1× Kinase Reaction Buffer supplemented with 2 μM ATP. 10 μL of the 2× enzyme solution was transferred to an assay plate containing 60 nL of test compound (from a 3× serial dilution) in 100% DMSO. Following a 30 minute incubation at 28° C., 10 μL of the 2× peptide solution was then transferred to the same assay plate. The reaction was allowed to incubate at 28° C. for 6 hours. After adding […] of stop buffer (100 mM HEPES pH 7.5, 0.015% Brij-35, 0.2% Coating-3 Reagent (PerkinElmer, catalog #PN760050), and 50 mM EDTA), data were collected on a Caliper instrument. Conversion values were converted to inhibition values via the following equation: % inhibition=(max−conversion)/(max−min)*100, whereby “max” corresponds to the DMSO control and “min” corresponds to the low control. IC50 values were calculated using the following equation in XLFit: Y=Bottom+(Top−Bottom)/1+(IC50/X)^HillSlope).

[1] = test system: ATR-driven phosphorylation of Chk1 kinase at Serine 345 in HT-29 colorectal adenocarcinoma cells; assay: pCHK1 cellular assay (CHK1 p-Ser345 AlphaScreen SureFire); format: cell-based; settings: 4-nitroquinoline N-oxide 12 uM, read-out: Cell IC50 (pCHK1 IC50 values)
Experimental: Inhibitors of ATR kinase are effective at inhibiting the ATR-driven phosphorylation of the downstream target Chk1 kinase at Serine 345, following the addition of 4-nitroquinoline N-oxide, a chemical used to induce DNA damage. Cellular IC50 for the inhibitors of ATR described herein were measured in HT-29 colorectal adenocarcinoma cells. HT-29 cells were routinely maintained in McCoy's 5A media (ATCC Catalog #30-2007) supplemented with 10% fetal bovine serum (Sigma Catalog #F2442) and 1× Penicillin-Streptomycin (Gibco Catalog #15140-122) using a humidified incubator (37° C., 5% CO2, and ambient O2).
In preparation for the CHK1 (p-Ser345) ALPHASCREEN® SUREFIRE® assay, cells were harvested and resuspended in McCoy's 5A media supplemented with 10% fetal bovine serum and 1× Penicillin-Streptomycin. Cells were seeded onto a 384-well black CELLSTAR® Tissue Culture Plate (VWR Catalog #89085-314) at a density of 13,000 cells/well in a volume of 40 uL. The microplate was incubated overnight (approximately 20 hours) at 37° C. with 5% CO2 and ambient O2. Stock solutions of the test compounds were prepared in 100% DMSO (Sigma, Catalog #D2650) and serially diluted 1:3 using 100% DMSO. Compounds were additionally diluted 1:33 in culture medium, and 10 ul/well were transferred to the tissue culture plate. Following the compound addition the microplate was incubated at 37° C. for 90 minutes. 10 uL of 4-nitroquinoline N-oxide (Sigma Aldrich Catalog #N8141-1G) diluted in media (final concentration 12 uM) were added to the tissue culture plate followed by a 120 minute incubation at 37° C. The cells were then washed with PBS and lysed using 10 uL/well SUREFIRE® Kit lysis buffer diluted to 1× in water (PerkinElmer Catalog #TGRCHK1S50K), with mixing on an orbital shaker at 500 rpm for 20 min at RT. Lysates were frozen at −20° C. overnight.
4 uL/well of lysate was then transferred from the tissue culture plate to a 384-well, white, low volume, PROXIPLATE™ (PerkinElmer Catalog #600828). 5 uL/well of the acceptor bead solution, prepared by diluting SUREFIRE® Kit activation buffer (PerkinElmer Catalog #TGRCHK1S50K) and ALPHASCREEN® Protein A acceptor beads (PerkinElmer Catalog #6760617R) in SUREFIRE® Kit reaction buffer (PerkinElmer Catalog #TGRCHK1S50K), were added to the lysates under subdued light and incubated at room temperature for 120 min. 2 uL/well of the donor bead solution, prepared by diluting ALPHASCREEN® Streptavidin donor beads (PerkinElmer Catalog #6760617R) in SUREFIRE® Kit dilution buffer (PerkinElmer Catalog #TGRCHK1S50K), were added under subdued light and incubated at room temperature for an addition 120 minutes. The pCHK1 ALPHASCREEN® signal was measured using an ENVISION® plate reader (PerkinElmer). IC50 values were calculated using a four-parameter logistic curve fit using Genedata Screener software. Percent of control for each compound concentration was calculated by the following formula: 100*(Compound−Min)/(Max−Min) where “Max” is the high control, DMSO, and “Min” is the low control, 5 uM ATR inhibitor.

[2] = read-out: ATR/ATRIP Enzyme IC50
[3] = Homo sapiens, HT-29, HT-29 cells
[4] = estimated range, read-out: ATR/ATRIP Enzyme IC50 (estimated class)

Sequence of ATR/ATRIP complex (Q13535 whole entry): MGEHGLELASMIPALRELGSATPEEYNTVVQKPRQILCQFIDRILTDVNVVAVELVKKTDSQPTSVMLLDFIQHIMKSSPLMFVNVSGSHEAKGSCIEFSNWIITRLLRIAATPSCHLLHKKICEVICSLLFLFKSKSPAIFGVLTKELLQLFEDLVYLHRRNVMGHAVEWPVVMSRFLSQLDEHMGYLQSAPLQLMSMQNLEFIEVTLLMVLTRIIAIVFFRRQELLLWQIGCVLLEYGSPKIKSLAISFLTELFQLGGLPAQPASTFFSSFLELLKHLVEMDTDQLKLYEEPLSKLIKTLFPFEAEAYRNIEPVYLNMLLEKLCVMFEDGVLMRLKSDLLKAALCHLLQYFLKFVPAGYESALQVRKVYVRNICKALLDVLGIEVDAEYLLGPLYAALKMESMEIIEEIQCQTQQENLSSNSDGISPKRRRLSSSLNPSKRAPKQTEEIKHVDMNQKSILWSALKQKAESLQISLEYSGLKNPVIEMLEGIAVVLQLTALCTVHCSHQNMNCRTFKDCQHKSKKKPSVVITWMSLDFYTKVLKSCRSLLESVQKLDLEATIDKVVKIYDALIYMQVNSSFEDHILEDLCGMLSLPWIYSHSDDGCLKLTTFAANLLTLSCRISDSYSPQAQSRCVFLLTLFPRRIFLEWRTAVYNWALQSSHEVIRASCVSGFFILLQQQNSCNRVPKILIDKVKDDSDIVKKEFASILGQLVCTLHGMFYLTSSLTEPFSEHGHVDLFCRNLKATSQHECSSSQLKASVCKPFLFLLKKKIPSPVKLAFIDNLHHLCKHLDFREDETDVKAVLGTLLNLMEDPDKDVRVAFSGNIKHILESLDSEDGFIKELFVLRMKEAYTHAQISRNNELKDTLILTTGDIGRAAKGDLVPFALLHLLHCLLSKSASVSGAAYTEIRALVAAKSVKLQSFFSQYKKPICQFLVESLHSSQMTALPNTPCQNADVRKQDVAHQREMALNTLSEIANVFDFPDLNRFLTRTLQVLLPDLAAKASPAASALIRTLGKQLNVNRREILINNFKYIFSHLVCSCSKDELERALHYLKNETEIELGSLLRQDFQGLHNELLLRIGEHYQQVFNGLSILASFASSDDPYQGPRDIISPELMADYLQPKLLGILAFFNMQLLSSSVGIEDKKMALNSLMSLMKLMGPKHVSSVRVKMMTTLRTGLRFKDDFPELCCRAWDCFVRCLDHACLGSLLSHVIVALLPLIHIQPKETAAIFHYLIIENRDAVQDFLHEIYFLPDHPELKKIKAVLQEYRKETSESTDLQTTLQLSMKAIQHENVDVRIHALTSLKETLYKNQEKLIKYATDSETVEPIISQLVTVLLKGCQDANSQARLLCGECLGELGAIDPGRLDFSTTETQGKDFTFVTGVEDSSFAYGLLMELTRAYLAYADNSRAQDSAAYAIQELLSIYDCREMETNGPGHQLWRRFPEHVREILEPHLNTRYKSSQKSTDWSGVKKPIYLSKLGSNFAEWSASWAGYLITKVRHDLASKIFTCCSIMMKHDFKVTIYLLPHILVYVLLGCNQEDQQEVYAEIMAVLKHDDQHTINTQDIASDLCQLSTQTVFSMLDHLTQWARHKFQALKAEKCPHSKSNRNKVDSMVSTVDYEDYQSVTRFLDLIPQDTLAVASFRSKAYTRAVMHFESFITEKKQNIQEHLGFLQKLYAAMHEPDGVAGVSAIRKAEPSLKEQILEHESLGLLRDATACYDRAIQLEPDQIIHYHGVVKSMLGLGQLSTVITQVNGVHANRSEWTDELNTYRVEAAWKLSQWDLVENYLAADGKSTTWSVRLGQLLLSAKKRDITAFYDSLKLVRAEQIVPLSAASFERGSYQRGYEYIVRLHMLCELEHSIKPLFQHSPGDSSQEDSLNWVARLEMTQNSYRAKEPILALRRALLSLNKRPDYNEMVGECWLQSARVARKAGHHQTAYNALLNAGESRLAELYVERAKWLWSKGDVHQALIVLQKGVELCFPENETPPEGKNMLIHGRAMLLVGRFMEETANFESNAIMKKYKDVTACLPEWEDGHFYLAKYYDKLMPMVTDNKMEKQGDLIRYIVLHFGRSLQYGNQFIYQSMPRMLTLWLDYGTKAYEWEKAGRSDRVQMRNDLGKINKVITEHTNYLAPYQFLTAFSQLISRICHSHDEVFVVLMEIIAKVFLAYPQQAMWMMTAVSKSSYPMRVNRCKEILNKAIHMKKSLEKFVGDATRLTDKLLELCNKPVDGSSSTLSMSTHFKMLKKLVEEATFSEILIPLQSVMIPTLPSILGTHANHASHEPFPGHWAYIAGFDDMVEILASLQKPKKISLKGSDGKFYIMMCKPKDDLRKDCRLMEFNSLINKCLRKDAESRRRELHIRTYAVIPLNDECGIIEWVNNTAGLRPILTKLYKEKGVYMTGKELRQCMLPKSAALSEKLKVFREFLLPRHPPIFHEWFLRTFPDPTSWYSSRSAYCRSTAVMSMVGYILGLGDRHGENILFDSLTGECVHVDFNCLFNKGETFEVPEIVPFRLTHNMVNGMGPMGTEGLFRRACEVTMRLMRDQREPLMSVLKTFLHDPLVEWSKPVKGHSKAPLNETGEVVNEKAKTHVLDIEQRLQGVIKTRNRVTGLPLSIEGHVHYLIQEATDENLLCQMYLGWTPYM
Sequence of ATR/ATRIP complex (Q8WXE1 whole entry partner): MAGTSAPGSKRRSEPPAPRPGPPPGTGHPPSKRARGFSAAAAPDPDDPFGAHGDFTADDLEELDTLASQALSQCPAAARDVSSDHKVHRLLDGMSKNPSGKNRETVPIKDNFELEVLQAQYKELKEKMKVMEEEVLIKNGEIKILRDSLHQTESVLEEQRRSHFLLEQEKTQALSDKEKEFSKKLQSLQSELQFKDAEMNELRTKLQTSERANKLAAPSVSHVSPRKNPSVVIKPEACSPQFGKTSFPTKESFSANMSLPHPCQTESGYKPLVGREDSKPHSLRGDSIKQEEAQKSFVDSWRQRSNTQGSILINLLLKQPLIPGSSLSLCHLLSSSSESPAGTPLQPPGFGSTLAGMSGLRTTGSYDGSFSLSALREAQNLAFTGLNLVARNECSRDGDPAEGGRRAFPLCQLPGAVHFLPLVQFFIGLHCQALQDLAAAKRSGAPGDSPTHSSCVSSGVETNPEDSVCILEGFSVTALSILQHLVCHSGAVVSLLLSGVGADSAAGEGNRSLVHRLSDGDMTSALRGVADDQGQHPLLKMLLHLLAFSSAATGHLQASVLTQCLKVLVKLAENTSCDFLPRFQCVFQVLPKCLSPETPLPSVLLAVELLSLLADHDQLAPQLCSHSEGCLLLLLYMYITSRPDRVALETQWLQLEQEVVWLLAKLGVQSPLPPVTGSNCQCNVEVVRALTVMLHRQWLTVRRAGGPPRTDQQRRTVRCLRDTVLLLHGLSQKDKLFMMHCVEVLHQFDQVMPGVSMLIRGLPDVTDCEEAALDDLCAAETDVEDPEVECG

SMILES: C[C@@H]1Cc2ncnc(C3CCC(NS(C)(=O)=O)CC3)c2CN1c1cc(Cl)nc2[nH]ccc12 (stereo partly drawn) [Example 40, (R)-N-(4-(6-(6-chloro-1H-pyrrolo[2,3-b]pyridin-4-yl)-7-methyl-5,6,7,8-tetrahydropyrido[4,3-d]pyrimidin-4-yl)cyclohexyl)methane-sulfonamide]
- IC50 (ATR/ATRIP complex; [2]): 899 nM
- IC50 [1, 3]: 24 nM

SMILES: Cc1cc(N2Cc3c(ncnc3C3CCN(S(C)(=O)=O)CC3)C[C@H]2C)c2cc[nH]c2n1 [Example 56, (R)-7-methyl-6-(6-methyl-1H-pyrrolo[2,3-b]pyridin-4-yl)-4-(1-(methylsulfonyl)piperidin-4-yl)-5,6,7,8-tetrahydropyrido[4,3-d]pyrimidine]
- IC50 (ATR/ATRIP complex; [2]): 773 nM
- IC50 [1, 3]: 52 nM

SMILES: C[C@@H]1Cc2ncnc(C3CCN(S(C)(=O)=O)CC3)c2CN1c1cc(C2CC2)nc2[nH]ccc12 [Example 95, (R)-6-(6-cyclopropyl-1H-pyrrolo[2,3-b]pyridin-4-yl)-7-methyl-4-(1-(methylsulfonyl)-piperidin-4-yl)-5,6,7,8-tetrahydropyrido[4,3-d]-pyrimidine]
- IC50 (ATR/ATRIP complex; [2]): 270 nM
- IC50 [1, 3]: 54 nM

SMILES: C[C@@H]1Cc2ncnc(N3C[C@H]4CC[C@@H](C3)[C@H]4NS(=O)(=O)C3CC3)c2CN1c1cc(Cl)nc2[nH]ccc12 [Example 78, N-((1R,5S,8R)-3-((R)-6-(6-chloro-1H-pyrrolo[2,3-b]pyridin-4-yl)-7-methyl-5,6,7,8-tetrahydropyrido-[4,3-d]pyrimidin-4-yl)-3-azabicyclo[3.2.1]-octan-8-yl)cyclopropane-sulfonamide]
- IC50 (ATR/ATRIP complex; [2]): 184 nM
- IC50 [1, 3]: 50 nM

SMILES: CS(=O)(=O)c1cccc(-c2ncnc3c2CN(c2ccnc4[nH]ccc24)CC3)c1 [Example 14, 4-(3-methanesulfonyl-phenyl)-6-{1H-pyrrolo-[2,3-b]pyridin-4-yl}-5H,6H,7H,8H-pyrido [4,3-d]pyrimidine]
- IC50 (ATR/ATRIP complex; [4]): 1000 to 10000 nM
- IC50 [1, 3]: 1610 nM

SMILES: CS(=O)(=O)N1CCC(c2ncnc3c2CN(c2ccnc4[nH]ccc24)[C@@H](C(F)F)C3)CC1 [Example 53a, (R)-7-(difluoromethyl)-4-(1-(methylsulfonyl)piperidin-4-yl)-6-(1H-pyrrolo[2,3-b]pyridin-4-yl)-5,6,7,8-tetrahydropyrido[4,3-d]pyrimidine]
- ATR/ATRIP Enzyme IC50 (ATR/ATRIP complex): no fit
- IC50 [1, 3]: 10000 nM

SMILES: CNC(=O)C1CCN(c2ncnc3c2CN(c2cc(Cl)nc4[nH]ccc24)[C@H](C)C3)CC1 [Example 76, (R)-1-(6-(6-chloro-1H-pyrrolo[2,3-b]pyridin-4-yl)-7-methyl-5,6,7,8-tetrahydropyrido[4,3-d]-pyrimidin-4-yl)-N-methylpiperidine-4-carboxamide]
- IC50 (ATR/ATRIP complex; [2]): 708 nM
- IC50 [1, 3]: 61 nM

SMILES: C[C@@H]1Cc2ncnc([C@H]3CCN(S(C)(=O)=O)C(C)(C)C3)c2CN1c1ccnc2[nH]ccc12 (single isomer, unassigned) [Example 48b]
- IC50 (ATR/ATRIP complex; [2]): 435 nM
- IC50 ([1]; HT-29 cells): 79 nM

SMILES: C[C@@H]1Cc2ncnc(N3CCC34CN(S(C)(=O)=O)C4)c2CN1c1cc(Cl)nc2[nH]ccc12 [Example 37, (R)-6-(6-chloro-1H-pyrrolo[2,3-b]pyridin-4-yl)-7-methyl-4-(6-(methylsulfonyl)-1,6-diazaspiro[3.3]heptan-1-yl)-5,6,7,8-tetrahydropyrido[4,3-d] pyrimidine]
- IC50 (ATR/ATRIP complex; [4]): 1000 to 10000 nM
- IC50 [1, 3]: 56 nM

SMILES: C[C@@H]1Cc2ncnc(C3CCN(C(=O)C(C)(C)O)CC3)c2CN1c1ccnc2[nH]ccc12 [Example 49, (R)-2-Hydroxy-2-methyl-1-(4-(7-methyl-6-(1H-pyrrolo[2,3-b]pyridin-4-yl)-5,6,7,8-tetrahydropyrido[4,3-d]pyrimidin-4-yl)piperidin-1-yl)propan-1-one]
- IC50 (ATR/ATRIP complex; [2]): 3600 nM
- IC50 [1, 3]: 654 nM

SMILES: C[C@@H]1Cc2ncnc(C3CCN(S(C)(=O)=O)C3)c2CN1c1ccnc2[nH]ccc12 (stereo partly drawn) [Example 17, 1-methanesulfonyl-3-[(7R)-7-methyl-6-{1H-pyrrolo[2,3-b]pyridin-4-yl}-5H,6H,7H,8H-pyrido[4,3-d]pyrimdin-4-yl]pyrrolidine]
- IC50 (ATR/ATRIP complex; [2]): 936 nM
- IC50 [1, 3]: 362 nM

SMILES: C[C@@H]1Cc2ncnc(N3CCC(O)(C4CC4)CC3)c2CN1c1cc(Cl)nc2[nH]ccc12 [Example 75, (R)-1-(6-(6-chloro-1H-pyrrolo[2,3-b]pyridin-4-yl)-7-methyl-5,6,7,8-tetrahydropyrido[4,3-d]pyrimidin-4-yl)-4-cyclopropylpiperidin-4-ol]
- IC50 (ATR/ATRIP complex; [2]): 246 nM
- IC50 [1, 3]: 34 nM

SMILES: CS(=O)(=O)c1ccc(-c2ncnc3c2CN(c2ccnc4[nH]ccc24)CC3)cc1 [Example 1, 4-(4-(Methylsulfonyl)phenyl)-6-(1H-pyrrolo[2,3-b]pyridin-4-yl)-5,6,7,8-tetrahydropyrido[4,3-d]pyrimidine bis(trifluoroacetate)]
- IC50 (ATR/ATRIP complex; [4]): 1000 to 10000 nM
- IC50 [1, 3]: 1880 nM

SMILES: C[C@@H]1Cc2ncnc(C3CCN(S(C)(=O)=O)CC3)c2CN1c1cc(OC2CC2)nc2[nH]ccc12 [Example 97, (R)-6-(6-cyclopropoxy-1H-pyrrolo[2,3-b]pyridin-4-yl)-7-methyl-4-(1-(methylsulfonyl)piperidin-4-yl)-5,6,7,8-tetrahydro-pyrido[4,3-d]pyrimidine]
- IC50 (ATR/ATRIP complex; [2]): 93 nM
- IC50 [1, 3]: 13 nM

SMILES: C[C@@H]1Cc2ncnc(N3CCCC(C(C)(C)O)C3)c2CN1c1cc(Cl)nc2[nH]ccc12 (stereo in doubt) [Example 45, 2-((R)-1-((R)-6-(6-Chloro-1H-pyrrolo[2,3-b]pyridin-4-yl)-7-methyl-5,6,7,8-tetrahydropyrido[4,3-d]pyrimidin-4-yl)piperidin-3-yl)propan-2-ol]
- IC50 (ATR/ATRIP complex; [2]): 378 nM
- IC50 [1, 3]: 39 nM

SMILES: C[C@@H]1Cc2ncnc(C3=CCC(NS(C)(=O)=O)CC3)c2CN1c1cc(Cl)nc2[nH]ccc12 (stereo partly drawn) [Example 73, N-(4-((R)-6-(6-chloro-1H-pyrrolo[2,3-b]pyridin-4-yl)-7-methyl-5,6,7,8-tetrahydropyrido[4,3-d]-pyrimidin-4-yl)cyclohex-3-en-1-yl)methane-sulfonamide]
- IC50 (ATR/ATRIP complex; [2]): 111 nM
- IC50 [1, 3]: 18 nM
